# Counter-ions that a name gives are not always drawn.
row,SMILES,melting point
1,CC(C)(C)OC(=O)N1CCC(c2nc(-c3ccc(F)cc3)c[nH]2)CC1,180 to 182 °C
2,CCCCOC(=O)N1CCCC(c2nc(-c3ccc(F)cc3)c[nH]2)C1 (stereo not drawn),96.5 °C
3,CCCCOC(=O)N1CCCCC1c1nc(-c2ccc(F)cc2)c[nH]1 (stereo not drawn),157.4 °C
4,Fc1ccc(-c2c[nH]c(C3CCNCC3)n2)cc1 (as salt: hydrochloride),> 260 °C
5,Fc1ccc(-c2c[nH]c(C3CCCCN3)n2)cc1 (stereo not drawn) (as salt: hydrochloride),222 to 223 °C
6,COc1ccc(-c2c[nH]c(C3CCNCC3)n2)cc1 (as salt: hydrochloride),272 to 273 °C
7,"c1ccc(-c2ccc(-c3c[nH]c(C4CCCNC4)n3)cc2)cc1 (stereo not drawn) (as salt: hydrochloride) [Example 22, 3-[4-(1,1′-biphenyl-4-yl)-1H-imidazol-2-yl]piperidine]",226 to 227 °C
8,"c1ccc(CN2CCC(c3nc(-c4ccc(-c5ccccc5)cc4)c[nH]3)CC2)cc1 [Example 12, 1-benzyl4-[4-(1,1′-biphenyl-4-yl)-1H-imidazol-2-yl]piperidine]",110 to 112 °C
9,"CCCCOC(=O)N1CCC(c2nc(-c3ccc(C(C)(C)C)cc3)c[nH]2)CC1 [Example 13, butyl 4-[4-(4-tert-butylphenyl)-1H-imidazol-2-yl]piperidine-1-carboxylate]",98 to 100 °C
10,"Fc1ccc(-c2c[nH]c(C3CCCCN3Cc3ccccc3)n2)cc1 (stereo not drawn) [Example 17, 1-benzyl-2-[4-(4-fluorophenyl)-1H-imidazol-2-yl]piperidine]",181.6 °C
11,"CCCCCCN1CCC(c2nc(-c3ccc(-c4ccccc4)cc3)c[nH]2)CC1 [Example 19, 4-[4-(1,1′-biphenyl-4-yl)-1H-imidazol-2-yl]-1-hexylpiperidine]",138 to 139 °C
12,"CCCCOC(=O)N1CCC(c2nc(-c3ccc(-c4ccccc4)cc3)c[nH]2)CC1 [Example 20, butyl 4-[4-(1,1′-biphenyl-4-yl)-1H-imidazol-2-yl]piperidine-1-carboxylate]",73 to 74 °C
13,"CCCCOC(=O)N1CCCCC1c1nc(-c2ccc(-c3ccccc3)cc2)c[nH]1 (stereo not drawn) [Example 23, butyl 2-[4-(1,1′-biphenyl-4-yl)-1H-imidazol-2-yl]piperidine-1-carboxylate]",166 to 167 °C
14,"CCCCOC(=O)N1CCCC(c2nc(-c3ccc(-c4ccccc4)cc3)c[nH]2)C1 (stereo not drawn) [Example 24, butyl 3-[4-(1,1′-biphenyl-4-yl)-1H-imidazol-2-yl]piperidine-1-carboxylate]",116 to 117 °C
15,"CCCCOC(=O)N1CCC(c2nc(-c3ccc(OC)cc3)c[nH]2)CC1 [Example 26, butyl 4-[4-(4-methoxyphenyl)-1H-imidazol-2-yl]piperidine-1-carboxylate]",48 to 50 °C

# Source: US20040077640A1 (priority 2000, published 2004)
